The assay concerns Staphylococcus aureus. The assay can be described thus: Contact viability assay, 2 minutes exposure. The format is cell-based. The settings on record: on its own. On the procedure: The assay was conducted in glass tubes and all test components were equilibrated at the teat temperature in a water bath before inoculation and during the suspension period (2 minutes). The inoculum is an 18 hour culture of Staphylococcus aureus grown in Brain Heart Infusion Broth. The reduction in CFU's are illustrated in FIG. 4. FIG. 7 illustrates the antimicrobial effect of emulsions of caprylic:oleic, capric:oleic and lauric:oleic with varying concentration in oleic acid. The emulsions were prepared by method 2 in Example 3.

Each structure is given as a SMILES string.

As to `CCCCCCCC/C=C\CCCCCCCC(=O)O` [oleic acid], the antimicrobial effect result is listed as “no significant antimicrobial effect”.

The record behind these values is US20100317734A1, “FREE FATTY ACID BLENDS AND USE THEREOF” (priority 2007, published 2010).
